Data from patent publication US20250009714A1, “SELECTION AND TREATMENT OF SUBJECTS HAVING A CIRCULATING MYELOID CELL INFLAMMATORY PHENOTYPE” (Tranquis Therapeutics, Inc., priority 2021, published 2025).

Tests used:
[1] = tested on: Ly6C^hi inflammatory monocytes; experiment: Ex vivo LPS stimulation of wild-type mouse whole blood, FACS of Ly6C^hi cells; assay type: cell-based; conditions: LPS stimulated, increasing concentrations of TQS-168, 5 hours at 37° C.
Method: Lipopolysaccharide (LPS) was used to induce circulating myeloid cells from wild type mice to adopt an inflammatory phenotype in vitro. […] As schematized in FIG. 1C, blood samples from wild-type mice were collected in EDTA tubes and stimulated with LPS. Whole blood was incubated at 37° C. with increasing concentrations of TQS-168 for 5 hours. Whole blood was lysed with lysis buffer from BD Bioscience for 10 minutes at 37C. Lysed blood was centrifuged at 500 g for 10 minutes. The supernatant was decanted, and cell pellet washed with Hank's balanced salt solution (HBSS). The cells were then centrifuged at 300 g for 10 minutes. They were subsequently resuspended in 2 mM EDTA FACS buffer. Fixed cells (100 μL) were washed with PBS. The cells (100 μL) were resuspended in PBS containing Zombie Aqua solution (Biolegend) at a 1:500 dilution. The cells were incubated in the dark at room temperature for 5 minutes. The cells were then washed with FACS buffer. The cells were stained with Cd11b, Ly6G, and Ly6C antibodies (BD Bioscience). The cells were then incubated with antibodies for 30 minutes. They were then washed with FACS buffer and then resuspended also in FACS buffer. Finally, the cells were acquired on flow cytometer.

[2] = Plasma levels of TQS-168 after a single oral dose in wild-type mice; assay type: in vivo, mouse; conditions: single 50 mg/kg dose
Method: FIG. 2A plots plasma concentration of TQS-168 over time after a single oral dose of […] TQS-168 in mice. FIG. 2B is a timeline representative of the protocol of the SOD1 mouse study. Plasma levels of TQS-168 in wild-type mice were analyzed subsequently to a single 50 mg/kg dose of TQS-168.

[3] = tested on: Ly6C^hi inflammatory monocytes in SOD1-G93A mice; experiment: Fraction of inflammatory monocytes in SOD1 mice (flow cytometry of blood); assay type: in vivo, mouse; conditions: 50 mg/kg oral gavage every 3 days from Day 70 until Day 90
From the text: The SOD1-G93A transgenic mouse has proven to be a useful tool in the study of ALS. A large majority of […] in the Superoxide dismutase 1 gene. SOD1-G93A mice express human SOD1 with the G93A mutation under control of the human SOD1 promoter. The mice show a phenotype similar to Amyotrophic Lateral Sclerosis in humans. 60-day old transgenic mice overexpressing the human SOD1-G93A ALS-causing mutation (stock #002726) and wild-type mice (WT; C57BL/6J) were obtained from the Jackson Labs. Oral dosing by gavage started at 70 days of age. SOD1 mice received either TQS-168 50 mg/kg every 3 days or vehicle (same volume and frequency). The staff that dosed and assessed the mice were blinded to treatment allocation. Blood samples were collected in EDTA tubes at 2 time points: 90 days of age and time of euthanasia. Blood samples were processed for flow cytometry and plasma cytokine analysis. Flow cytometry methods employed are the same as those employed in Example 1 and Example 2.

[4] = tested on: plasma cytokines (IL-6, IL-10, TNFα, interferon gamma, CXCL5, etc.); experiment: Plasma cytokines in SOD1 mice (48-plex Procarta panel); assay type: in vivo, mouse; conditions: 50 mg/kg oral gavage every 3 days from Day 70 until day of euthanasia
Method: 60-day old transgenic mice overexpressing the human SOD1-G93A ALS-causing mutation (stock #002726) and wild-type mice (WT; C57BL/6J) were obtained from the Jackson Labs. Oral dosing by gavage started at 70 days of age. SOD1 mice received either TQS-168 50 mg/kg every 3 days or vehicle (same volume and frequency). The staff that dosed and assessed the mice were blinded to treatment allocation. Blood samples were collected in EDTA tubes at 2 time points: 90 days of age and time of euthanasia. Blood samples were processed for flow cytometry and plasma cytokine analysis. Flow cytometry methods employed are the same as those employed in Example 1 and Example 2.
Blood samples were collected from SOD1 mice at Day 90 and time of euthanasia. Plasma samples were assayed using the 48-plex Procarta panel (Thermo Fisher).

[5] = tested on: SOD1-G93A mice; experiment: Survival in SOD1 mice (time from birth to euthanasia, righting reflex); assay type: in vivo, mouse
Method: 60-day old transgenic mice overexpressing the human SOD1-G93A ALS-causing mutation (stock #002726) were obtained from the Jackson Labs. Dosing started at 70 days of age. SOD1 mice received either TQS-168 50 mg/kg every 3 days or vehicle (same volume and frequency) by oral gavage. The righting reflex (ability to turn over when place on their backs) was assessed every 3 days when mice were <110 days old and every day after age 110 days. Mice were euthanized if they could not right themselves in 20 seconds after being placed onto their back. Time from birth to euthanasia was calculated for each mouse and compared in the two groups.

[6] = tested on: CD14+CD16+ monocytes; experiment: Four-hour ex vivo incubation of whole blood of ALS patients, FACS of CD14+CD16+ monocytes; assay type: cell-based, human; conditions: 4-hour ex vivo incubation
Method: Whole blood samples from patients with ALS were shipped at room temperature. The percentage of CD14+CD16+ monocytes were determined by fluorescence activated cell sorting (FACS). Briefly, whole blood was lysed with lysis buffer (BD Bioscience) for 10 minutes at 37° C. Lysed blood was centrifuged at 500 g for 10 min. Supernatant was decanted and the cell pellet washed with HBSS (Hank's balanced salt solution). Cells were centrifuged at 300 g for 10 min. Cells were resuspended in FACS buffer (PBS+2% FBS[…]). Fixed cells (100 μL) were washed with PBS. Cells (100 μL) were resuspended in PBS containing Zombie Aqua (Biolegend; 1:500 dilution). Cells were incubated in the dark at room temperature for 5 minutes. Cells were washed with FACS buffer. Cells were stained with 5 μL CD16 and 5 μL CD14 antibodies (BD Bioscience). Cells were incubated with antibodies for 30 minutes. Cells were washed with FACS buffer. Cells were resuspended in FACS buffer. Cells were acquired on a flow cytometer. FIG. 5B outlines the experimental protocol for assessing the effects of ex vivo incubation with TQS-168 on the inflammatory phenotype of circulating myeloid cells in peripheral blood samples of ALS patients. Samples were obtained from iSpecimen (Lexington, MA) and BioIVT (Westbury, NY). Blood samples were processed within 36 hours of collection and were never frozen. […]

[7] = tested on: Ppargc1α (PGC-1α) expression; conditions: direct molecular binding partner unknown; cited from earlier work
[8] = tested on: SOD1-G93A mice; conditions: SOD1 mouse model; cited from earlier work

SMILES | LPS-induced increase in percentage of Ly6C^hi inflammatory monocytes [1] | oral bioavailability (plasma levels) [2] | increase in circulating Ly6C^hi monocytes in SOD1 mice [3] | increase in plasma cytokines from Day 90 to day of euthanasia [4] | survival compared with vehicle ([5]; 50 mg/kg oral gavage every 3 days) | median survival ([5]; 50 mg/kg oral gavage every 3 days from 70 days of age) | difference in median survival versus vehicle ([5]; 50 mg/kg oral gavage every 3 days, vehicle 129) | percentage of CD14+CD16+ monocytes after incubation ([6]; 30 μM, from 1.5% without compound) | change in percentage of intermediate (CD14+CD16+) monocytes with increasing concentrations [6] | effect on Ppargc1α (PGC-1α) expression [7] | survival benefit in the SOD1 model (approved ALS treatments) [8]
CC(C)(C)c1ccc(-c2nc3ccccc3[nH]2)cc1 [TQS-168, 2-(4-tert-butylphenyl)-1H-benzimidazole] | inhibits the LPS-induced increase in Ly6C^hi monocytes | orally bioavailable | inhibited the increase in circulating Ly6C^hi monocytes | inhibited this increase in plasma cytokines | survived longer | 135 days | 6 days | less than 1% | dose-dependent decrease | activator of Ppargc1α (PGC-1α) expression | 
CC1=NN(c2ccccc2)C(=O)C1 [edaravone] |  |  |  |  |  |  |  |  |  |  | failed to display survival benefits
